Consider 1 molecule from ChEMBL document CHEMBL5523751, “Discovery of Novel Diaryl-Substituted Fused Heterocycles Targeting Katanin and Tubulin with Potent Antitumor and Antimultidrug Resistance Efficacy” (J Med Chem, 2024).

Each structure is given as a SMILES string. Active and inactive are the calls of the source. The calls are words filed in the database; no cut-off is given here. Bounds are passed on as bounds.

Data set [1] has as its system HCT-116. Briefly: Antiproliferative activity against human HCT-116 cells assessed as inhibition of cell growth measured after 48 hrs by MTT assay. In kind it is functional, cell-based. The following applies: HCT-116, 48 h.
A short description of data set [2]: Toxicity in Balb/C nude mouse assessed as abnormalities in heart at 0.5 mg/kg, ip measured after 14 days by H and E staining based analysis. Type of data set: organism-based. The following applies: in vivo, 336 h, time 14 day.
The test system of data set [3] is A2780. Briefly: Antiproliferative activity against human A2780 cells assessed as inhibition of cell growth measured after 48 hrs by MTT assay. In kind it is functional, cell-based. To be noted: A2780, 48 h.
Data set [4] deals with MGC-803. Briefly: Antiproliferative activity against human MGC-803 assessed as inhibition of cell growth measured after 48 hrs by MTT assay. In kind it is functional, cell-based. The following applies: MGC-803, 48 h.
Data set [5] deals with MDA-MB-468. Briefly: Antiproliferative activity against human MDA-MB-468 cells assessed as inhibition of cell growth measured after 48 hrs by MTT assay. In kind it is functional, cell-based. The following applies: MDA-MB-468, 48 h.
The target of data set [6] is Katanin p60 ATPase-containing subunit A1 (Homo sapiens, UniProt O75449). Briefly: Binding affinity to N-terminal human Katanin p60 (8 to 229 residues) expressed in Escherichia coli Rosetta (DE3) by SPR analysis.
In data set [7] the test system is A549. Briefly: Antiproliferative activity against human A549 assessed as inhibition of cell growth measured after 48 hrs by MTT assay. In kind it is functional, cell-based. To be noted: A549, 48 h.
For data set [8], the system named is HeLa. Briefly: Antiproliferative activity against human HeLa assessed as inhibition of cell growth measured after 48 hrs by MTT assay. In kind it is functional, cell-based.
Data set [9] in a line: Toxicity in Balb/C nude mouse assessed as abnormalities in kidney at 0.5 mg/kg, ip measured after 14 days by H and E staining based analysis. Type of data set: organism-based. To be noted: in vivo, 336 h, time 14 day.
The test system of data set [10] is PANC-1. Briefly: Antiproliferative activity against human PANC-1 assessed as inhibition of cell growth measured after 48 hrs by MTT assay. Type of data set: functional, cell-based. To be noted: PANC-1, 48 h.
Data set [11] in a line: Toxicity in Balb/C nude mouse assessed as mortality at 2.5 mg/kg, ip measured after 14 days. In kind it is organism-based. To be noted: in vivo, 336 h, time 14 day.
Data set [12] has as its system SK-OV-3. Briefly: Antiproliferative activity against human SK-OV-3 cells assessed as inhibition of cell growth measured after 48 hrs by MTT assay. In kind it is functional, cell-based. The following applies: SK-OV-3, 48 h.
The nature of data set [13]: Toxicity in Balb/C nude mouse assessed as mortality at 0.25 mg/kg, ip measured after 14 days. Type of data set: organism-based. To be noted: in vivo, 336 h, time 14 day.
In data set [14] the test system is HT-29. Briefly: Antiproliferative activity against human HT-29 cells assessed as inhibition of cell growth measured after 48 hrs by MTT assay. The following applies: HT-29, 48 h. In kind it is functional, cell-based.
Data set [15] deals with MDA-MB-231. Briefly: Antiproliferative activity against human MDA-MB-231 cells assessed as inhibition of cell growth measured after 48 hrs by MTT assay. The following applies: MDA-MB-231, 48 h. In kind it is functional, cell-based.
Data set [16] can be described thus: Toxicity in Balb/C nude mouse assessed as abnormalities in spleen at 0.5 mg/kg, ip measured after 14 days by H and E staining based analysis. In kind it is organism-based. To be noted: in vivo, 336 h, time 14 day.
Data set [17] has as its system DU-145. Briefly: Antiproliferative activity against human DU-145 assessed as inhibition of cell growth measured after 48 hrs by MTT assay. In kind it is functional, cell-based. To be noted: DU-145, 48 h.
The test system of data set [18] is U-87 MG. Briefly: Antiproliferative activity against human U-87 MG assessed as inhibition of cell growth measured after 48 hrs by MTT assay. In kind it is functional, cell-based, U-87MG ATCC.
In data set [19] the test system is MCF7. Briefly: Antiproliferative activity against human MCF7 cells assessed as inhibition of cell growth measured after 48 hrs by MTT assay. Type of data set: functional, cell-based. The following applies: MCF7, 48 h.
The nature of data set [20]: Toxicity in Balb/C nude mouse assessed as abnormalities in liver at 0.5 mg/kg, ip measured after 14 days by H and E staining based analysis. In kind it is organism-based. The following applies: in vivo, 336 h, time 14 day.
Data set [21] can be described thus: Toxicity in Balb/C nude mouse assessed as abnormalities in lung at 0.5 mg/kg, ip measured after 14 days by H and E staining based analysis. Type of data set: organism-based. To be noted: in vivo, 336 h, time 14 day.
Data set [22] in a line: Resistance index, ratio of IC50 for antiproliferative activity against human A549/Taxol cells to IC50 for antiproliferative activity against human A549 cells. In kind it is functional.

Sequence of Katanin p60 ATPase-containing subunit A1 (O75449 whole entry, the tested form may be a part): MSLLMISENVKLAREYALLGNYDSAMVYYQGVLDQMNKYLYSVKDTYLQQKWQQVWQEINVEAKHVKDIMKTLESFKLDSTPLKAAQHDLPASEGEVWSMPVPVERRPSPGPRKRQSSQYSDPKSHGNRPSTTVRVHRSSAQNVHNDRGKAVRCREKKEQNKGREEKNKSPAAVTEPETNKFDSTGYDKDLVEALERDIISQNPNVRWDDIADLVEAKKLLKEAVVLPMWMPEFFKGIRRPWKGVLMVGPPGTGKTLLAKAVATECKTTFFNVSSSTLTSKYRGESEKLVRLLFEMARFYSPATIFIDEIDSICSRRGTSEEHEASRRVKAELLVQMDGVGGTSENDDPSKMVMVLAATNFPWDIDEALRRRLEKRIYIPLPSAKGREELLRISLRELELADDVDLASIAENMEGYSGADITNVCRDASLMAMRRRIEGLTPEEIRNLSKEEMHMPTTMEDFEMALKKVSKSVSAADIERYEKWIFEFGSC

For the molecule `COc1cc2c(c(OC)c1OC)-c1ccc(OC)c(=O)cc1[C@@H](NC(C)=O)CC2` [COLCHICINE], the IC50 came out at 17 nM in [1]; 13 nM in data set [3]; 2 nM in data set [4]; 12 nM in data set [5]; 29 nM in data set [7]; 10 nM in data set [8]. The IC50 in data set [10] was found to be 25 nM; in [12], 11 nM; in data set [14], 59 nM; in data set [15] it was 36 nM; in data set [17], 20 nM; in [18], 36 nM. Further, the IC50 in data set [19] was found to be 25 nM. Moreover, the Activity result in data set [2] is on record as “Non-Toxic”; in data set [9], “Non-Toxic”; in [11], “Toxic”; in [13] it was “Non-Toxic”; in [16], “Non-Toxic”; in [20], “Non-Toxic”. In addition, the Activity entry in [21] is “Non-Toxic”. Further, the outcome in data set [6] was inactive. The “Ratio IC50” value in data set [22] is over 10.
